{
  "source": "patent US20060280725A1",
  "about": "“Compositions and methods of treating and diagnosing hepatoma” (priority 2003, published 2006)",
  "key": {"[1]": {"test_system": "THLE-5B", "experiment": "Glutamine transport assay (inhibition and kinetic analysis)", "assay_type": "cell-based, human", "description": "FIG. 1. Amino acid inhibition analysis of glutamine transport in the Hep3B, PLC/PRF/5 and Focus human hepatoma cell lines and the THLE-5B SV40-immortalized human liver epithelial cell line. The Na^+-dependent transport of 50 μM L-glutamine was measured as described in the Methods section in the absence or presence of the indicated unlabeled amino acids at 5 mM. Testing of cysteine (CYSH) required the presence of 5 mM dithiothreitol (DTT) as a reducing agent, so DTT was tested alone as well. Arrows indicate the relative transport rates for 50 μM L-glutamine in primary human adult (solid arrow) and fetal (open arrow) hepatocytes. The results represent the average±SD of four separate determinations (*p<0.010 versus control). The Eadie-Hofstee plots of the kinetic analyses are shown as an inset in each figure, with the dashed lines representing the resolved high and low affinity components of the composite data (solid line). The derived values of the kinetic constants for each component are given in the Results section.\n(§1) Glutamine Transport Assays. Measurement of initial-rate glutamine uptake was carried out via the cluster-tray method originally described by Gazzola (21) as reported previously (6, 9). Briefly, after trypsinization hepatoma cells were plated at a density of 1×10^5 cells/well in 24-well culture plates (Costar Corp., Cambridge, Mass.) and allowed to grow to >80% confluence, typically one to two days later. For initial-rate measurements, the radiotracer utilized was L-[G-^3H] glutamine (Amersham Corp., Arlington Heights, Ill.) at 4 μCi/ml, in the presence of unlabeled L-glutamine at 50 μM. For kinetic studies, the amount of unlabeled glutamine in the transport buffer varied from 10 μM to 10 mM. All transport measurements were carried out at 37° C. and were terminated after 30 s by three rapid washes with an ice-cold phosphate-buffered saline solution. Intracellular radiolabeled glutamine was extracted with 0.2 ml/well of 0.2% sodium dodecyl sulfate (SDS) and 0.2 N NaOH; after 1 h, 0.1 ml of the lysate was neutralized with 10 μl of 2 N HCl and subjected to scintillation spectrophotometry in a Packard TopCount™ (Packard Instruments, Meriden, Conn.). The remaining lysate was utilized for the determination of cellular protein by the bicinchoninic acid (BCA) method (Pierce Chemical Co., Rockford, Ill.). Rates of glutamine transport were calculated from the cpm per sample, the specific activity of the uptake mix (in cpm/nmol) and normalized to cellular protein content in a Microsoft Excel® spreadsheet program. Transport values obtained in the absence of extracellular Na^+ (diffusion and Na^+-independent uptake) were subtracted from those in the presence of Na^+ (total uptake) to yield Na^+-dependent rates which are reported in units of nmol•mg^−1 protein•30 s^−1. All transport values depicted are the average±standard deviation of four separate determinations. Kinetic analysis of Eadie-Hofstee linearized transport data (v vs. v/[L-GLN]) was performed by regression analysis (Cricket Graph®, Computer Associates, Islandia, N.Y.). Nonlinear regression analysis was performed with DataDesk (Data Description, Inc. Ithaca, N.Y.) and Excel for two component Michaelis-Menten kinetics: v=((Vmax1×[S])/(Km1+[S])+(Vmax2×[S])/(Km2+[S])).\nIt should be noted that extensive depletion of intracellular amino acid pools were not performed prior to transport measurements in these studies because we sought to assess glutamine uptake under more physiological conditions. […]"}, "[2]": {"test_system": "Focus", "experiment": "Glutamine transport assay (initial-rate uptake, kinetic analysis)", "assay_type": "cell-based, human", "description": "as §1\n(§2) Therefore, two component nonlinear regression analyses were performed on the Na^+-dependent transport kinetic data, where they were adequately resolved into high and low affinity components in all cell lines under study. The results are graphically depicted in FIG. 1 as insets. […] Possibilities for each cell line will be offered discussion based on the molecular analyses described below."}, "[3]": {"test_system": "Hep3B", "experiment": "Glutamine transport assay (initial-rate uptake, kinetic analysis)", "assay_type": "cell-based, human", "description": "as §1, §2"}, "[4]": {"test_system": "PLC/PRF/5", "experiment": "Glutamine transport assay (initial-rate uptake, kinetic analysis)", "assay_type": "cell-based, human", "description": "as §1, §2"}, "[5]": {"test_system": "Huh-7", "experiment": "Glutamine transport assay (initial-rate uptake, kinetic analysis)", "assay_type": "cell-based, human", "description": "as §1, §2"}, "[6]": {"test_system": "System A & N isoforms", "settings": "read-out: deduced Km values for glutamine; cited from earlier work"}, "[7]": {"settings": "read-out: Km, high affinity component"}, "[8]": {"settings": "read-out: Km, low affinity component"}, "[9]": {"settings": "read-out: Km, low affinity system"}, "[10]": {"settings": "read-out: Km, high affinity system"}},
  "note": "Like-named read-outs stand apart in the source and are kept apart here.",
  "data": [
    {"smiles": "NC(=O)CC[C@H](N)C(=O)O", "note": "[glutamine, L-glutamine]", "values": [
      {"measurement": "Vmax, high affinity component", "setting": "[1]", "value": "30.8 nmol•mg^−1 protein•30 s^−1"},
      {"measurement": "Vmax, low affinity component", "setting": "[1]", "value": "32.6 nmol•mg^−1 protein•30 s^−1"},
      {"measurement": "Km", "setting": "[1]; [7]", "value": 135, "unit": "µM"},
      {"measurement": "Km", "setting": "[1]; [8]", "value": 1300, "unit": "µM"},
      {"measurement": "Vmax, high affinity component", "setting": "[2]", "value": "2.2 nmol•mg^−1 protein•30 s^−1"},
      {"measurement": "Vmax, low affinity system", "setting": "[2]", "value": "2.7 nmol•mg^−1 protein•30 s^−1"},
      {"measurement": "Km", "setting": "[2]; [7]", "value": 122, "unit": "µM"},
      {"measurement": "Km", "setting": "[2]; [9]", "value": 1200, "unit": "µM"},
      {"measurement": "Vmax, high affinity system", "setting": "[3]", "value": "3.0 nmol•mg^−1 protein•30 s^−1"},
      {"measurement": "Vmax, low affinity system", "setting": "[3]", "value": "4.5 nmol•mg^−1 protein•30 s^−1"},
      {"measurement": "Km", "setting": "[3]; Na+-dependent glutamine transport, read-out: Km, low affinity system", "value": 1000, "unit": "µM"},
      {"measurement": "Km", "setting": "[3]; [10]", "value": 90, "unit": "µM"},
      {"measurement": "Vmax, high affinity system", "setting": "[4]", "value": "0.82 nmol•mg^−1 protein•30 s^−1"},
      {"measurement": "Vmax, low affinity system", "setting": "[4]", "value": "3.9 nmol•mg^−1 protein•30 s^−1"},
      {"measurement": "Km", "setting": "[4]; [10]", "value": 23, "unit": "µM"},
      {"measurement": "Km", "setting": "[4]; [9]", "value": 775, "unit": "µM"},
      {"measurement": "Vmax, high affinity component", "setting": "[5]", "value": "7.3 nmol•mg^−1 protein•30 s^−1"},
      {"measurement": "Vmax, low affinity component", "setting": "[5]", "value": "11.7 nmol•mg^−1 protein•30 s^−1"},
      {"measurement": "Km", "setting": "[5]; [7]", "value": 50, "unit": "µM"},
      {"measurement": "Km", "setting": "[5]; [8]", "value": 861, "unit": "µM"},
      {"measurement": "Km", "setting": "[6]", "value": "1 to 3", "unit": "mM"}
    ]}
  ]
}
